Measurements reported in patent US20060229356A1, “Use of indomethacin and derivatives as broad-spectrum antiviral drugs and corresponding pharmaceutical compositions” (priority 2003, published 2006).
Values joined by “and” are separate entries in the source; they are usually repeats but may differ in a detail not shown here. Identical values can stand only once.

What was measured:
[1] = tested on: paramyxovirus (Sendai, SV); experiment: Sendai virus (SV) replication in 37RC cells, hemagglutination assay; type: cell-based; details: for Virus yield: Table 2, SV; for Reduction of virus production: paramyxovirus, each agent given separately
[2] = tested on: influenza A virus (WSN strain); experiment: Influenza A virus (WSN) replication in A549 cells, hemagglutination assay; type: cell-based; details: for Virus yield: Table 2, WSN; for Decrease of virus production: influenza virus, each agent given separately
rotavirus (SA-11 strain) = experiment: Rotavirus (SA-11) replication in MA104 cells, hemagglutination assay; type: cell-based; details: MA104, 24 h, read-out: IC50 (50% reduction of the virus titer)
[3] = tested on: coronavirus (CCoV, S-378 strain); experiment: Coronavirus (CCoV) replication in A-72 cells, CPE50% assay; type: cell-based
[4] = tested on: Herpes Simplex type 1 virus (HSV-1); experiment: HSV-1 replication in HEp-2 cells, CPE50% assay; type: cell-based, Herpes Simplex virus type 1
[5] = tested on: 37RC cells infected with SV; experiment: Cytoprotective effect in SV-infected 37RC cells (FIG. 1); type: cell-based, monkey; details: 37RC cells infected with SV for 24 hours, 400 microM INDO
Procedure: (§1) FIGS. 1 and 2 show the cytoprotective effect of INDO. Cells were infected as described in example 1.
FIG. 1A: 37RC cells non infected (control); FIG. 1B: 37RC cells infected with SV for 24 hours non treated (SV); FIG. 1C: 37RC cells infected with SV for 24 hours and treated with 400 microM INDO (SV+INDO).

[6] = tested on: A-72 cells infected with CCoV; experiment: Cytoprotective effect in CCoV-infected A-72 cells (FIG. 2); type: cell-based, canine; details: A-72 cells infected with CCoV for 24 hours, 400 microM INDO
Procedure: as §1
FIG. 2A: A-72 cells non infected (control); FIG. 2B: A-72 cells infected with CCoV for 24 hours non treated (CCoV); FIG. 2C: A-72 cells infected with CCoV for 24 hours and treated with 400 microM INDO (CCoV+INDO).

virion = experiment: Addition to the virus suspension or during virus adsorption; type: cell-based; details: INDO 5-10 mM, any of the viruses indicated
[7] = tested on: transcription factor NF-κB; experiment: Activation of NF-κB induced by viral infection; type: cell-based; details: at the active antiviral concentrations, data not shown
[8] = tested on: transcription factor HSF (Heat Shock Factor); experiment: Activation of HSF (Heat Shock Factor); type: cell-based; details: at the active antiviral concentrations, data not shown
GRP78/BiP = experiment: Synthesis of stress protein GRP78/BiP; type: cell-based
poxvirus = details: cited from earlier work
coxsackie virus = details: cited from earlier work
[9] = tested on: Vesicular Stomatitis Virus (VSV); details: VSV infection; cited from earlier work
HIV-1 = HIV-1 infection; cited from earlier work
herpesviruses = details: some herpesviruses; cited from earlier work

COc1ccc2c(c1)c(CC(=O)O)c(C)n2C(=O)c1ccc(Cl)cc1 [INDO, Indomethacin]
IC50 ([1]; Respirovirus muris, 24 h, read-out: IC50 (50% reduction of the virus titer)): 130 µM | Virus yield ([1]; INDO alone 100 μM): 50 % of control and 60 % of control | Reduction of virus production [1]: 40% | Effect at 48 hours after infection [2]: lost its effect | IC50 ([2]; Influenza A virus, WSN, A549, 24 h, read-out: IC50 (50% reduction of the virus titer)): 400 µM | Virus yield ([2]; INDO alone 200 μM): 75 % of control | Virus yield ([2]; INDO alone 400 μM): 67 % of control | Decrease of virus production [2]: approximately 30% | IC50 (rotavirus (SA-11 strain)): < 25 µM | IC50 ([3]; A-72, 24 h, read-out: IC50 (50% reduction of the virus titer)): < 50 µM | inhibition at 50 µM ([3]; A-72, coronavirus, INDO 50 microM, read-out: Inhibition of virus production as compared to control): > 90% | Virus yield ([4]; Table 2, HSV-1, INDO alone 25 μM): 28.2 % of control and 38.1 % of control | Virus yield ([4]; Table 2, HSV-1, INDO alone 100 μM): 9.7 % of control | Protective effect on cellular damage (cytopathic effect) caused by virus [5]: protected from the destructive cytopathic effect | Protective effect on cellular damage (cytopathic effect) caused by virus [6]: protected from the destructive cytopathic effect | Effect on virus replication when added to the virus suspension or during virus adsorption (virion): no effect | Inhibition of NF-κB activation induced by the viral infection [7]: does not inhibit | Activation of HSF (Heat Shock Factor) [8]: does not activate | Synthesis of endoplasmic reticulum stress protein GRP78/BiP (GRP78/BiP): observed the synthesis | Concentrations non-toxic for the host cell (host cell): 10 to 800 µM | Antiviral effect (literature) (poxvirus): no antiviral effect or to worsen the infection | Antiviral effect (literature) (coxsackie virus): no antiviral effect or to worsen the infection | Antiviral effect (literature) [9]: antiviral effect | Antiviral effect (literature) (HIV-1): antiviral effect | Antiviral effect (literature) (herpesviruses): antiviral effect

NC(=O)c1ncn([C@@H]2O[C@H](CO)[C@@H](O)[C@H]2O)n1 [RIB, ribavirin]
Virus yield ([2]; RIB alone 50 μM): 58 % of control

Nc1nc2c(ncn2COCCO)c(=O)[nH]1 [ACY, acyclovir]
Virus yield ([4]; Table 2, HSV-1, ACY alone 1 μM): 7.7 % of control

[Cl-].[Cl-].[Zn+2] [ZnCl2]
Virus yield ([1]; ZnCl2 alone 50 μM): 60 % of control | Virus yield ([2]; ZnCl2 alone 50 μM): 67 % of control | Virus yield ([4]; Table 2, HSV-1, ZnCl2 alone 50 μM): 8.3 % of control

CCCCC[C@H](O)/C=C/[C@H]1C=CC(=O)[C@@H]1CCCCCCC(=O)O [PGA1]
Virus yield ([4]; Table 2, HSV-1, PGA1 alone 25 μM): 9 % of control

CCCCC/C=C/C=C1/C(=O)C=C[C@@H]1C/C=C\CCCC(=O)O [15dx-PGJ2, 15deoxy-Δ^12-14-PGJ2]
Virus yield ([1]; 15dx-PGJ2 alone 1 μM): 37 % of control | Reduction of virus production [1]: 63%

CCCCC[C@H](O)C/C=C1/C(=O)C=C[C@@H]1C/C=C\CCCC(=O)O [Δ^12-PGJ2]
Virus yield ([2]; Δ^12-PGJ2 alone 5 μM): 67 % of control | Decrease of virus production [2]: approximately 30%
